Laboratory results published in patent US20130102595A1 (Curis, Inc., priority 2011, published 2013).

Assays:
[1] = target: T1, PI3Kγ (p120γ) (Homo sapiens, UniProt P48736); assay: PI3Kγ ADP-Glo assay; assay type: biochemical; settings: 20 μM PIP2, 10 μM ATP, 90 minutes
T1 construct: His (N); made in house; host or cells: Baculovirus-infected Sf9 cells
Protocol: (d) an In Vitro Assay which Determines the Ability of a Test Compound to Inhibit PI3Kγ.
Activity of PI3Kγ was measured using ADP-Glo assay from Promega. PI3Kγ, N-terminal His-tagged recombinant full-length human p120γ (GenBank, Accession No. AF327656) was expressed in a Baculovirus infected Sf9 cell expression system. The ADP-Glo assay was performed to measure the amount of ADP generated from ATP hydrolysis coupled with PIP2 phosphorylation by the purified recombinant PI3Kγ […]. PI3Kγ was incubated with 20 μM PIP2 substrate in the reaction buffer (10 mM Tris-HCl, pH 7.5, 50 mM NaCl, 5 mM MgCl2, 10 μM ATP and 0.5% DMSO) for 90 minutes at room temperature. The ADP generated was then detected by ADP-Glo assay from Promega, a luminescent ADP detection assay. The ADP-Glo assay is performed in two steps; first, after the kinase reaction, ADP-Glo Reagent is added to terminate the kinase reaction and deplete the remaining ATP. Second, the Kinase Detection Reagent is added to simultaneously convert ADP to ATP and allow the newly synthesized ATP to be measured using a luciferase/luciferin reaction.

[2] = target: T2, mTor serine/threonine protein kinase (Homo sapiens, UniProt P42345); assay: mTor kinase radioisotope assay; assay type: biochemical; settings: 70 uM ATP, 40 minutes; read-out: m-TOR IC50
T2 construct: FLAG; made in house; host or cells: Baculovirus expression system in Sf21 cells
Summary of the method: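 FLAG-tagged full-length recombinant human mTor from baculovirus/Sf21, incubated with p70S6K C-terminal fragment (2 mg/ml) and 70 uM ATP plus 33P-ATP tracer in 50 mM HEPES pH 7.5, 3 mM MnCl2, 40 min at room temperature. Phosphoric acid stop, filtermat capture, scintillation counting; IC50 from sigmoidal dose-response fit.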

[3] = tested on: OVCAR-5; assay: Cell proliferation assay (CellTiter-Glo); assay type: cell-based; settings: Homo sapiens, Ovarian, 72 hours, 0.5% fetal bovine serum, read-out: antiproliferative activity IC50, OVCAR-5
Summary of the method: (§1)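 5,000–10,000 cells/well; compound titration, 72 h, 0.5% FBS. ATP luminescence read 30 min after lysis/substrate addition.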

[4] = tested on: LN-Cap; assay: Cell proliferation assay (CellTiter-Glo); assay type: cell-based; settings: Homo sapiens, LNCaP; Prostate; 72 hours, 0.5% fetal bovine serum; read-out: antiproliferative activity IC50, LN-Cap
Summary of the method: as §1

[5] = tested on: PC-3; assay: Cell proliferation assay (CellTiter-Glo); assay type: cell-based; settings: Homo sapiens, Prostate, 72 hours, 0.5% fetal bovine serum, read-out: antiproliferative activity IC50, PC-3
Summary of the method: as §1

T1 sequence (P48736 whole entry): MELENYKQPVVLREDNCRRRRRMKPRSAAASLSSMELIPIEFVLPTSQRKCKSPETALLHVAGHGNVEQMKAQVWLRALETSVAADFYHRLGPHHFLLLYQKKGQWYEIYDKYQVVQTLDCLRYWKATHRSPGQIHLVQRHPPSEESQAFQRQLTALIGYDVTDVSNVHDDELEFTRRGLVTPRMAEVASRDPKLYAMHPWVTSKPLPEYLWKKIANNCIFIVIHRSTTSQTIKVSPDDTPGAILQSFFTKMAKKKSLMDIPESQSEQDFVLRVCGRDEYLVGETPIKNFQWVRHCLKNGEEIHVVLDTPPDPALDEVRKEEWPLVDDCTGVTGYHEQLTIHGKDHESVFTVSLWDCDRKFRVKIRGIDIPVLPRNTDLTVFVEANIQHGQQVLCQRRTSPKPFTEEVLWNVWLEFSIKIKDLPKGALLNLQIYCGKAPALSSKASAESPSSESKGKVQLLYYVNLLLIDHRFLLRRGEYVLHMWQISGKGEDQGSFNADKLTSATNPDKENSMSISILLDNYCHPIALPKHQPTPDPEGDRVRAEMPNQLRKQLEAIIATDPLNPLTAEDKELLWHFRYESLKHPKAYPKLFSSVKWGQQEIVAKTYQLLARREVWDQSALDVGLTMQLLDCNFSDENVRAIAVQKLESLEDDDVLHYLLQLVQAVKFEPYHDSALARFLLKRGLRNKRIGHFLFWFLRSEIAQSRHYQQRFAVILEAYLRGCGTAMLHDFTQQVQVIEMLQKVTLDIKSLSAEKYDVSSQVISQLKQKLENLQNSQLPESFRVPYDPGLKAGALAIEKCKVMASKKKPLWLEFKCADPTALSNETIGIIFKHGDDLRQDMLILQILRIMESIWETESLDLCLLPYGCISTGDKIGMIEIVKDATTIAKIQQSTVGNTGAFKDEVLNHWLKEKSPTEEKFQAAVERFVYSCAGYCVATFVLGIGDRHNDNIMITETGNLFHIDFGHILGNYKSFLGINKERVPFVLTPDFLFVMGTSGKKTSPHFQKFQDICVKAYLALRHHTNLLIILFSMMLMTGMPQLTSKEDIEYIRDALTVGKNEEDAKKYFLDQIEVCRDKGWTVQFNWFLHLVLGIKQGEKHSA

melting point [°C]	IC50 [1] [nM]	IC50 [2] [nM]	IC50 [3] [nM]	IC50 [5] [nM]	SMILES	IC50 [4] [nM]
197 to 200	< 100	–	–	–	CN(Cc1cc2nc(-c3cccc4[nH]ncc34)nc(N3CCOCC3)c2s1)c1ncc(C(=O)NO)cn1 [Compound 54, 2-(((2-(1H-indazol-4-yl)-4-morpholinothieno[3,2-d]pyrimidin-6-yl)methyl)(methyl)amino)-N-hydroxypyrimidine-5-carboxamide]	–
–	100 to 1000	< 100	–	–	CNc1ccc(-c2nc(N3CCOCC3)c3sc(CN(C)c4ncc(C(=O)NO)cn4)cc3n2)cn1 [Compound 111, N-Hydroxy-2-(methyl((2-(6-(methylamino)pyridin-3-yl)-4-morpholinothieno[3,2-d]pyrimidin-6-yl)methyl)amino)pyrimidine-5-carboxamide]	–
–	–	< 100	< 10	10 to 100	CN(Cc1cc2nc(-c3ccc(N)cc3)nc(N3CCOCC3)c2s1)c1ncc(C(=O)NO)cn1 [Compound 150, 2-(((2-(4-aminophenyl)-4-morpholinothieno[3,2-d]pyrimidin-6-yl)methyl)(methyl)amino)-N-hydroxypyrimidine-5-carboxamide]	< 10
